pIC50: −log10 of the molar value. Where two headings read alike, the source gives them in different places.
What was measured:
Granta-519 = test: Long-term proliferation (LTP) assay; format: cell-based; settings: Homo sapiens
[1] = system: sDMA methylation in Granta-519 cells; test: sDMA western blot, 10 kDa band to total SmD3; format: cell-based; settings: Homo sapiens
Experimental: (§1) The measurement of the 10 kDa band was used to calculate the methylation IC50 values. […] Concentration-dependent decreases in the 10 kDa band were observed on day 4 in all cell lines tested with representative western blots shown for Z-138 and Maver-1 cell lines (FIG. 1). Levels of the 10 kDa band from the western blots were quantified by densitometry and ratios of 10 kDa band (postulated to be SmD3me2s) to total SmD3 were calculated to determine the IC50s (Table 2, n=1 for all samples).

[2] = system: sDMA methylation in Jeko-1 cells; test: sDMA western blot, 10 kDa band to total SmD3; format: cell-based; settings: Homo sapiens
Experimental: as §1

[3] = system: sDMA methylation in Maver-1 cells; test: sDMA western blot, 10 kDa band to total SmD3; format: cell-based; settings: Homo sapiens
Experimental: as §1

[4] = system: sDMA methylation in Mino cells; test: sDMA western blot, 10 kDa band to total SmD3; format: cell-based; settings: Homo sapiens
Experimental: as §1

[5] = system: sDMA methylation in Z-138 cells; test: sDMA western blot, 10 kDa band to total SmD3; format: cell-based; settings: Homo sapiens
Experimental: as §1

Z-138 xenograft model = test: 21 day mantle cell lymphoma xenograft study: TGI and tumor methyl mark; format: in vivo; settings: Z-138 efficacy study; all dose groups tested; day 21
Experimental: Data presented in this example were determined after analysis of 21 day samples of mantle cell lymphoma tumors. Cmin PK samples were taken prior to the last dose on day 21. Tumors were excised, weighed and processed for methyl mark. Methyl mark reduction was measured in tumor samples and is shown as percent of vehicle control (POC). […] Tumor growth inhibition was determined using tumor volume reduction at day 21 expressed as a percent of POC. In vivo inhibition curves were also generated and IC50 values determined. Plasma levels from each group are averaged from 5 animals. […] The average body weight loss (BWL) in all groups was <6%. All doses tested show >50% TGI. […] The average BWL in all groups was <4%. The average BWL in all groups was <8%, except in the 100 mg/kg does group were 4 animals exceeded BWL of 15%.

[6] = Body weight loss in Z-138 xenograft study; format: in vivo; settings: 21 days
Experimental: (§2) Data presented in this example were determined after analysis of 21 day samples of mantle cell lymphoma tumors. Cmin PK samples were taken prior to the last dose on day 21. Tumors were excised, weighed and processed for methyl mark. Methyl mark reduction was measured in tumor samples and is shown as percent of vehicle control (POC). Both SYM11 and sDMA Elisa were used to measure methyl mark and the data shown is averaged from 10 animals. Tumor growth inhibition was determined using tumor volume reduction at day 21 expressed as a percent of POC. In vivo inhibition curves were also generated and IC50 values determined. Plasma levels from each group are averaged from 5 animals. […] The average body weight loss (BWL) in all groups was <6%. All doses tested show >50% TGI. […] The average BWL in all groups was <4%. The average BWL in all groups was <8%, except in the 100 mg/kg does group were 4 animals exceeded BWL of 15%.

[7] = Body weight loss in Maver-1 xenograft study; format: in vivo; settings: 21 days
Experimental: as §2

[8] = system: Z-138 cells overexpressing full length (FL) MDM4; test: Cell cycle analysis of transduced Z138 cell lines; format: cell-based, Human; settings: 50 nM or 500 nM; 2, 3, or 4 days
Experimental: 1×10^6 Z138 cells were seeded in a 6-well tissue culture dish in a volume of 3 mL IMDM+10% horse serum per well. Lentiviruses (MDM4 or EGFP in pLEX vector) were prepared as previously described or purchased from Santa Cruz Biotechnology (cat. # sc-29435-V and sc-108080 for p53 shRNA or scrambled shRNA lentiviruses, respectively). Lentiviral particles were added to seeded cells at […] and supplemented with polybrene at 8 μg/mL. 6-well plates were sealed with Parafilm and spun at 1000×g for 90 minutes at 37° C. for lentiviral treatment. The contents of each well were then collected into separate 15 mL conical tubes and spun at 1000×g for 5 minutes. Supernatant (containing lentivirus and polybrene) was discarded and the cell pellet was resuspended in 3 mL of IMDM+10% horse serum. […]
Transduction efficiency was evaluated for EGFP-transduced cells using fluorescence microscopy. […]
Cells were seeded at 250,000 cells/well in 6-well tissue culture dishes in a volume of 3 mL IMDM+10% horse serum (supplemented with 0.5 μg/mL puromycin for transduced cell lines). […] Pellets were frozen at −80° C. until ready to process. […]
Samples were processed by FACS on a Becton Dickinson FACSCalibur machine. The percentage of cells in each cell cycle stage was determined using the cell cycle function on the gated single cell population with FlowJo V10 software.

[9] = 96 h, day 4, N = 1, read-out: sDMA Western blot IC50 10 kDa Band
[10] = Table 3, read-out: sDMA Western IC50

pIC50 [1, 9]	pIC50 [1, 10]	pIC50 [2, 9]	pIC50 [2, 10]	pIC50 ([3]; Maver1, 96 h, day 4, N = 1, read-out: sDMA Western blot IC50 10 kDa Band)	pIC50 ([3]; Maver1, Table 3, read-out: sDMA Western IC50)	pIC50 [4, 9]	pIC50 [4, 10]	pIC50 [5, 9]	pIC50 [5, 10]	Structure (SMILES)	pIC50 (Granta-519; 264 h, 11-day treatment, N = 1, read-out: Formula B LTP IC50)	IC90 (Granta-519; 264 h, 11-day treatment, N = 1, read-out: Formula B LTP IC90) [nM]	pIC50 (Granta-519; Table 3, read-out: LTP IC50)	methyl mark in tumors (sDMA Western blot) (Z-138 xenograft model)	average body weight loss (BWL) in all groups [6] [%]	average body weight loss (BWL) in all groups [7] [%]	sensitivity of cells overexpressing full length (FL) MDM4 to PRMT5 inhibition [8]
9.52	9.52	8.02	8.02	10.00	10.00	8.70	8.70	9.00	9.00	CC(=O)N1CCC(Nc2cc(C(=O)NC[C@H](O)CN3CCc4ccccc4C3)ccn2)CC1 [Formula B]	7.92	77	8.22	completely removed	< 6	< 4	–
–	–	–	–	–	–	–	–	–	–	O=C(NC[C@H](O)CN1CCc2ccccc2C1)c1ccnc(NC2CCC2)c1 [Formula C]	–	–	–	–	–	–	less sensitive
